Experimental findings from patent US20060160784A1, “Method for treating neurologic diseases” (priority 2005, published 2006) are described below.

The subject of the experiment is G93A transgenic mice. In words: Survival of G93A murine ALS model mice treated with MGd from symptom onset. The format is in vivo. The conditions noted are these: for survival interval (survival data used for plot B), individual animals: one value per mouse, unit days. The source says:
Transgenic mice which overexpress the G93A human Cu, Zn superoxide dismutase (SOD 1) mutant develop motor paralysis similar to amyotrophic lateral sclerosis (ALS) in humans. At 90-100 days of age, these mice develop hindlimb weakness which rapidly progresses to total body paralysis within 2-3 weeks. Such trangenic mice were used to evaluate the survival and neuroprotective action of MGd with G93A transgenic mice. In particular, the purpose of this study was to test the effect of MGd (administered at a loading dose of 5 mg/kg and a maintenance dose of 2.5 mg/kg/day i.p. thereafter).
Studies involved the use of G93A overexpressing mice purchased directly from JAX Labs. Due to the high variability in age of onset (of motor neuron disease or MND) and total survival, a mouse colony was bred using the JAX Labs protocols. […] Therefore, littermate males were chosen to sire subsequent offspring and used to produce 10-12 litters of age-matched mice for drug studies. Typically 50-60 transgenic mice were obtained from 10-12 litters and, within these groups, the variability in age of onset and survival was quite low.
The procedure used involved monitoring the transgenic mice from several litters for onset of symptoms of motor neuron degeneration. At symptom onset (muscle weakness), mice were randomly assigned sequentially to either Control (no treatment) or Treatment (MGd-treated) groups. Mice were sacrificed when moribund (unable to assume upright posture), as required by animal welfare protocol. Motexafin gadolinium formulated at 2 mM (2.3 mg/ml) in 5% aqueous mannitol was used for this study and the study group involved 10-11 animals in each group, 21 animals total.
At the onset of symptoms MGd was administered via i.p injection at a loading dose of 5 mg/kg and a maintenance dose of 2.5 mg/kg/day i.p injection. was administered thereafter.
Transgenic mice which overexpress the G93A human Cu, Zn superoxide dismutase (SOD1) mutant develop motor paralysis similar to amyotrophic lateral sclerosis (ALS) in humans. At 90-100 days of age, these mice develop hindlimb weakness which rapidly progresses to total body paralysis within 2-3 weeks. Such trangenic mice were used to evaluate the survival and neuroprotective action of MGd with G93A transgenic mice. In particular, the purpose of this study was to test the effect of MGd (administered at a dose of 1 mg/kg/day i.p.).
The procedure used involved monitoring the transgenic mice from several litters for onset of symptoms of motor neuron degeneration. At symptom onset (muscle weakness), mice were randomly assigned sequentially to either Control (no treatment) or Treatment (MGd-treated) groups. Mice were sacrificed when moribund (unable to assume upright posture), as required by animal welfare protocol. Motexafin gadolinium formulated at 2 mM (2.3 mg/ml) in 5% aqueous mannitol was used for this study and the study group involved 9 animals in each group, 18 animals total.
At the onset of symptoms MGd was administered via i.p injection at a dose of 1 mg/kg/day.
Transgenic mice which overexpress the G93A human Cu, Zn superoxide dismutase (SOD 1) mutant develop motor paralysis similar to amyotrophic lateral sclerosis (ALS) in humans. At 90-100 days of age, these mice develop hindlimb weakness which rapidly progresses to total body paralysis within 2-3 weeks. Such trangenic mice were used to evaluate the survival and neuroprotective action of MGd with G93A transgenic mice. In particular, the purpose of this study was to test the effect of MGd (administered at a dose of 2.5 mg/kg/q.2d. and 2.5 mg/kg/q.4d. i.p.).
The procedure used involved monitoring the transgenic mice from several litters for onset of symptoms of motor neuron degeneration. At symptom onset (muscle weakness), mice were randomly assigned sequentially to either Control (no treatment) or Treatment (MGd-treated) groups. Mice were sacrificed when moribund (unable to assume upright posture), as required by animal welfare protocol. […]

Several values for one entry are separate records, joined by “and”; a condition that tells them apart may be missing. Equal entries are not always repeated.

`CC(=O)[O-].CC(=O)[O-].CCc1c(CC)c2cc3nc(cnc4cc(OCCOCCOCCOC)c(OCCOCCOCCOC)cc4ncc4nc(cc1[n-]2)C(CCCO)=C4C)C(C)=C3CCCO.O.[Gd+3]` [MGd, Motexafin Gadolinium]: the “extension of mean survival over untreated control mice” value was “roughly 2.7 fold” (Example 10, loading dose 5 mg/kg i.p., then 2.5 mg/kg/day i.p.) and “roughly 2.5 fold” (Example 11, 1 mg/kg/day i.p.). Further, the “survival interval (survival data used for plot B), individual animals” value was 53 days and 54 days and 26 days and 23 days and 21 days and 20 days and 46 days and 55 days and 36 days and 32 days (Example 10, loading dose 5 mg/kg i.p., then 2.5 mg/kg/day i.p. from symptom onset); 48 days and 41 days (2×) and 35 days (2×) and 49 days and 39 days and 52 days and 54 days (Example 11, 1 mg/kg/day i.p. from symptom onset, 1 mg/kg/day); 20 days and 37 days and 35 days and 30 days and 28 days (2×) (Example 12, 2.5 mg/kg/q.2d. i.p. from symptom onset, 2.5 mg/kg); 30 days and 38 days and 20 days and 35 days and 26 days and 47 days (Example 12, 2.5 mg/kg/q.4d. i.p. from symptom onset, 2.5 mg/kg). The mean survival is reported as 36.6 days (Example 10, loading dose 5 mg/kg i.p., then 2.5 mg/kg/day i.p., untreated control 13.4 days, p=4×10^−5); 43.8 days (Example 11, 1 mg/kg/day i.p., untreated control 17.2 days, p<1×10^−5); 30 days (Example 12, 2.5 mg/kg/q.2d. i.p., untreated control 23 days, p=0.069); 33 days (Example 12, 2.5 mg/kg/q.4d. i.p., untreated control 23 days, p=0.068). Further, the “extension of survival over untreated control mice” value is, setting by setting: (Example 12, 2.5 mg/kg/q.2d. i.p.) “roughly 1.3 fold”; (Example 12, 2.5 mg/kg/q.4d. i.p.) around 1.4 fold.
